ChEMBL document CHEMBL5058564, “EUbOPEN Chemogenomics Library 2 (Incucyte)” (2022)

Assays:
Format in all cases: toxicity, cell-based
[1] = tested on: HEK-293T; assay: Incucyte cell viability with HEK293T; conditions: human, 10 µM, compound concentration 10 uM
[2] = tested on: Fibroblast; assay: Incucyte cell viability with human fibroblast; conditions: 10 µM, compound concentration 10 uM
[3] = tested on: U2OS; assay: Incucyte cell viability with U2OS; conditions: human, 10 µM, compound concentration 10 uM
[4] = 0 h, replicate number 2, timepoint 0 hours
[5] = 0 h, replicate number 1, timepoint 0 hours
[6] = 6 h, replicate number 2, timepoint 6 hours
[7] = 18 h, replicate number 2, timepoint 18 hours
[8] = 24 h, replicate number 2, timepoint 24 hours
[9] = 12 h, replicate number 1, timepoint 12 hours
[10] = 12 h, replicate number 2, timepoint 12 hours
[11] = 24 h, replicate number 1, timepoint 24 hours
[12] = 6 h, replicate number 1, timepoint 6 hours
[13] = 18 h, replicate number 1, timepoint 18 hours
Also: unitless GR value; below 1 slowed growth and below 0 cell loss.

Cc1c(CC(=O)O)c2cccnc2n1Cc1ccc(S(C)(=O)=O)cc1C(F)(F)F [FEVIPIPRANT]
Growth Rate [1, 4]: 0.79
Growth Rate [2, 5]: 0.42
Growth Rate [2, 4]: 0.97
Growth Rate [3, 5]: -0.75
Growth Rate [3, 4]: -1
Growth Rate [3, 6]: 0.82
Growth Rate [3, 7]: 0.93
Growth Rate [3, 8]: 0.88

COc1cccc2c1c(NS(=O)(=O)c1ccc(Cl)s1)nn2Cc1cccc(CNC(=O)C(C)(C)O)c1
Growth Rate [1, 5]: 0.52
Growth Rate [1, 6]: 0.95
Growth Rate [1, 9]: 0.98
Growth Rate [1, 10]: 0.47
Growth Rate [1, 11]: 0.38
Growth Rate [2, 4]: 0.35
Growth Rate [2, 12]: 0.17
Growth Rate [2, 6]: 0.5
Growth Rate [2, 9]: 0.41
Growth Rate [2, 13]: 0.35
Growth Rate [2, 11]: 0.53
Growth Rate [3, 5]: -0.39
Growth Rate [3, 4]: -1
Growth Rate [3, 9]: 0.99
Growth Rate [3, 10]: 0.98
Growth Rate [3, 7]: 0.83
Growth Rate [3, 8]: 0.89

Cc1cc(CN)cc(C)c1-c1ncn(C)c1-c1cncn1C
Growth Rate [1, 5]: 0.03
Growth Rate [1, 4]: -0.09
Growth Rate [1, 9]: 0.88
Growth Rate [1, 11]: 0.89
Growth Rate [2, 5]: 0.66
Growth Rate [2, 4]: -0.16
Growth Rate [2, 12]: 0.41
Growth Rate [3, 5]: -0.39
Growth Rate [3, 4]: 0.16
Growth Rate [3, 12]: 0.65
Growth Rate [3, 6]: 0.66
Growth Rate [3, 9]: 0.71
Growth Rate [3, 10]: 0.95
Growth Rate [3, 13]: 0.74
Growth Rate [3, 11]: 0.73

CCOc1ccc(Cc2nc3cc(C(=O)N(CC)CC)ccc3n2CC2CCCCC2)cc1
Growth Rate [1, 5]: 0.75
Growth Rate [1, 4]: 0.57
Growth Rate [1, 6]: 0.53
Growth Rate [1, 9]: 0.75
Growth Rate [1, 13]: 0.86
Growth Rate [1, 11]: 0.93
Growth Rate [2, 5]: 0.96
Growth Rate [2, 6]: 0.61
Growth Rate [2, 10]: 0.58
Growth Rate [2, 7]: 0.98
Growth Rate [3, 5]: -0.21
Growth Rate [3, 4]: -1
Growth Rate [3, 7]: 1

CC(C)N(CCCCOCC(=O)NS(C)(=O)=O)c1cnc(-c2ccccc2)c(-c2ccccc2)n1 [SELEXIPAG]
Growth Rate [1, 5]: 0.99
Growth Rate [1, 4]: 0.73
Growth Rate [1, 6]: 0.76
Growth Rate [1, 9]: 0.89
Growth Rate [1, 10]: 0.73
Growth Rate [2, 5]: 0.56
Growth Rate [2, 4]: 0.34
Growth Rate [2, 12]: 0.5
Growth Rate [2, 9]: 0.75
Growth Rate [2, 13]: 0.76
Growth Rate [2, 11]: 0.48
Growth Rate [3, 5]: 0.21
Growth Rate [3, 4]: -1
Growth Rate [3, 12]: 0.41
Growth Rate [3, 10]: 0.8
Growth Rate [3, 13]: 0.99
Growth Rate [3, 7]: 0.98
Growth Rate [3, 11]: 1

CC(COc1ccccc1)N(CCCl)Cc1ccccc1.Cl (stereo not given) [PHENOXYBENZAMINE HYDROCHLORIDE]
Growth Rate [1, 4]: 0.07
Growth Rate [1, 12]: 0.03
Growth Rate [1, 9]: 0.28
Growth Rate [1, 13]: 0.49
Growth Rate [1, 7]: 1
Growth Rate [1, 11]: 0.56
Growth Rate [2, 12]: 0.45
Growth Rate [2, 9]: 0.55
Growth Rate [2, 13]: 0.49
Growth Rate [2, 11]: 0.51
Growth Rate [3, 4]: 0.42
Growth Rate [3, 13]: 0.94

CC(=O)c1cc(-c2ccccc2OCC2CC2)c2ncccn12
Growth Rate [1, 5]: 0.61
Growth Rate [1, 13]: 0.98
Growth Rate [2, 4]: 0.39
Growth Rate [2, 6]: 0.72
Growth Rate [2, 10]: 0.88
Growth Rate [3, 5]: 0.8
Growth Rate [3, 4]: 0.26
Growth Rate [3, 12]: 0.45
Growth Rate [3, 6]: 0.99
Growth Rate [3, 13]: 0.98
Growth Rate [3, 11]: 0.98

Cc1nnc2n1-c1sc(CCC(=O)N3CCOCC3)cc1C(c1ccccc1Cl)=NC2 [APAFANT]
Growth Rate [1, 5]: 0.99
Growth Rate [2, 4]: 0.77
Growth Rate [2, 12]: 0.26
Growth Rate [2, 6]: 0.74
Growth Rate [2, 9]: 0.81
Growth Rate [2, 10]: 0.51
Growth Rate [2, 7]: 0.73
Growth Rate [2, 8]: 0.95
Growth Rate [3, 12]: 0.99
Growth Rate [3, 6]: 0.76
Growth Rate [3, 10]: 0.88
Growth Rate [3, 7]: 0.75
Growth Rate [3, 8]: 0.93

Cl.FC(F)(F)c1ccc(N2CCNCC2)nc1Cl
Growth Rate [1, 4]: 0.55
Growth Rate [1, 12]: 0.75
Growth Rate [1, 6]: 0.92
Growth Rate [1, 9]: 0.89
Growth Rate [1, 10]: 0.95
Growth Rate [1, 13]: 0.79
Growth Rate [1, 7]: 0.89
Growth Rate [1, 11]: 0.75
Growth Rate [1, 8]: 0.82
Growth Rate [2, 5]: 0.87
Growth Rate [2, 4]: 0.43
Growth Rate [2, 12]: 0.27
Growth Rate [2, 9]: 0.59
Growth Rate [2, 13]: 0.46
Growth Rate [2, 11]: 0.59
Growth Rate [3, 4]: 0.39
Growth Rate [3, 12]: 0.77
Growth Rate [3, 6]: 0.86
Growth Rate [3, 9]: 0.84
Growth Rate [3, 10]: 0.78
Growth Rate [3, 13]: 0.93
Growth Rate [3, 7]: 0.87
Growth Rate [3, 8]: 0.96

COc1ccncc1C(=O)NC(=O)Nc1ccc(-c2ccccc2)c(C(F)(F)F)c1
Growth Rate [1, 12]: 0.25
Growth Rate [1, 6]: 0.96
Growth Rate [1, 9]: 0.48
Growth Rate [1, 10]: 0.74
Growth Rate [1, 13]: 0.58
Growth Rate [1, 7]: 0.86
Growth Rate [1, 11]: 0.69
Growth Rate [2, 5]: 0.48
Growth Rate [2, 4]: 0.72
Growth Rate [2, 12]: -0.12
Growth Rate [2, 6]: 0.15
Growth Rate [2, 9]: 0.58
Growth Rate [2, 13]: 0.7
Growth Rate [2, 11]: 0.92
Growth Rate [3, 6]: 0.74
Growth Rate [3, 7]: 0.94
Growth Rate [3, 8]: 1

CSc1cc2c(cc1C(F)(F)F)N(C(=O)Nc1cccnc1)CC2
Growth Rate [1, 4]: -0.27
Growth Rate [1, 12]: 0.82
Growth Rate [1, 9]: 0.63
Growth Rate [1, 13]: 0.75
Growth Rate [1, 11]: 0.64
Growth Rate [2, 5]: -0.3
Growth Rate [2, 4]: 0.46
Growth Rate [3, 10]: 0.94
Growth Rate [3, 13]: 0.84
Growth Rate [3, 11]: 0.99
Growth Rate [3, 8]: 0.93

O=C(O)c1nc2ccccc2c2[nH]c3c(I)cccc3c12
Growth Rate [1, 5]: 0.01
Growth Rate [1, 4]: 0.84
Growth Rate [1, 10]: 0.75
Growth Rate [1, 7]: 0.78
Growth Rate [2, 5]: -0.96
Growth Rate [2, 4]: 0.92
Growth Rate [3, 4]: -1
Growth Rate [3, 12]: 0.56
Growth Rate [3, 10]: 0.85
Growth Rate [3, 13]: 0.93
Growth Rate [3, 7]: 0.85
Growth Rate [3, 8]: 0.91
